Test results reported in patent publication US20250051510A1, “CARBON-IODINE CONJUGATED POLYMER AND PREPARATION THEREOF, AND USE THEREOF FOR PREPARING LOCALIZATION MARKER” (Huazhong University of Science and Technology, priority 2021, published 2025).

Legend:
[1] = Local injection into rat leg muscles under CT guidance, CT marking over time; type: in vivo; details: rat leg muscle, iodine content increased by 25 times
Experimental: In order to verify whether the super-strong CT imaging effect of PIDA is practically applicable, the PIDA dispersion and iohexol with the same iodine content were injected locally into leg muscles of a rat respectively under CT guidance in the present invention. For effective CT marking, the CT signal intensity thereof should be 2 times or more that of background tissues. A background CT signal of rat muscle tissues is about 50 HU, so the CT marking signal intensity exceeding 100 HU can be regarded as effective CT marking. […] To further verify the high efficiency and location stability of PIDA CT imaging, in the present invention, iohexol with the iodine content being increased by 25 times was injected into a corresponding leg muscle site of a rat.

[2] = test system: rat erythrocytes; assay: Hemolysis test with rat erythrocytes; type: cell-based; details: PIDA dispersions of different concentrations; Triton = 100% hemolysis control
Experimental: When a material is applied in the biomedical field, in addition to the special imaging/treatment effect of the material, the biocompatibility of the material itself is the topic that people are most concerned about. At the cell level, PIDA dispersions of different concentrations were mixed with rat erythrocytes in the present invention. […] In addition, in the present invention, PIDA dispersions of different concentrations were respectively incubated together with 4Tl cells (mouse breast cancer cells), NIH 3T3 cells (mouse embryonic fibroblasts) and HEK 293T (human embryonic kidney cells) for 12 hours, and cell viability was verified by means of MTT verification.

Compound | time until CT enhancement completely disappeared [1] [h] | hemolysis rate [2]
CC(=O)N(CC(O)CO)c1c(I)c(C(=O)NCC(O)CO)c(I)c(C(=O)NCC(O)CO)c1I (centres unmarked) [iohexol] | ≤ 6 | –
Triton | – | complete hemolysis
